Assay results from ChEMBL document CHEMBL1201862, “PubChem BioAssay data set” (2004).
Active and inactive are the calls of the source.

What was measured:
Cytochrome P450 2C9 = Cytochrome P450 2C9 (Homo sapiens, UniProt P11712)
Cytochrome P450 1A2 = target: T1, Cytochrome P450 1A2 (Homo sapiens, UniProt P05177);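 further: PubChem cytochrome P450 panel assay, CYP1A2 panel member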
T1 sequence (P05177 whole entry): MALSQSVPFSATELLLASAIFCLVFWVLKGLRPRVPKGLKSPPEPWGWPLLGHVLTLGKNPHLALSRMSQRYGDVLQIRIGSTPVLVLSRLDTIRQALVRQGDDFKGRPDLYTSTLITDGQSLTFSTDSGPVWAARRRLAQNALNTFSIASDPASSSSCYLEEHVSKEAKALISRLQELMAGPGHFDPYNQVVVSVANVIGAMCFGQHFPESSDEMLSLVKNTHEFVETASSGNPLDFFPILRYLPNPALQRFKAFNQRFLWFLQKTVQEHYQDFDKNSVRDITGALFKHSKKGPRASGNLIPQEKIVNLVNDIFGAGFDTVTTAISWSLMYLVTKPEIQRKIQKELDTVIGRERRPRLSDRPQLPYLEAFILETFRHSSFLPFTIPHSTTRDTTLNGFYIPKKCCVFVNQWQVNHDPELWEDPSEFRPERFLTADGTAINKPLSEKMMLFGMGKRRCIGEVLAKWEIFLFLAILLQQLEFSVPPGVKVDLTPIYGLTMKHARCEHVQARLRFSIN

[1] = inhibitors of intracellular T. cruzi replication, confirmation, NIH3T3 host cells, beta-gal luminescence (AID 2044); format: functional, cell-based;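 further: intracellular parasites grown in NIH/3T3 mouse fibroblasts as host cells; luminescent beta-galactosidase reporter signal from transgenic T. cruzi replicating inside host cells; inhibitors lower the luminescence signal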
[2] = cytotoxicity toward NIH3T3 fibroblasts, dose response, counter-screen, cell-based, ATP luminescence, mouse fibroblasts (AID 2010); format: functional;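 further: cells exposed to compound for about 90 hours before reading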
Cytochrome P450 3A4 = Cytochrome P450 3A4 (Homo sapiens, UniProt P08684);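 further: CYP3A4 tested as one member of a cytochrome P450 panel screen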
Cytochrome P450 3A4, sequence (P08684 whole entry): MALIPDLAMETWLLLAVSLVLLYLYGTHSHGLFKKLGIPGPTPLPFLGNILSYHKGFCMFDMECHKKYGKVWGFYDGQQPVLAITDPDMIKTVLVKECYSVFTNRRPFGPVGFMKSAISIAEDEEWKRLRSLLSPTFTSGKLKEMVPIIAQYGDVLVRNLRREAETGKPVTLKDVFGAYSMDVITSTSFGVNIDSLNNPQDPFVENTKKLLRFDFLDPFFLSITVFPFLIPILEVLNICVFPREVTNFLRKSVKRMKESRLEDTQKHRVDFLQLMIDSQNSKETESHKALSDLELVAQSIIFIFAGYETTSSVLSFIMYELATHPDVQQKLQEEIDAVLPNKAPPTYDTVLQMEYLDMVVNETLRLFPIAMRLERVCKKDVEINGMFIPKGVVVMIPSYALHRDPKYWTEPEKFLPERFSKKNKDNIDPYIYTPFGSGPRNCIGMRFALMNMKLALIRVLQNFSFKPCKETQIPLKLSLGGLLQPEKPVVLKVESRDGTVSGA

Cytochrome P450 2C19 = Cytochrome P450 2C19 (Homo sapiens, UniProt P33261); assay: Cytochrome panel assay with activity outcomes. Panel member name: p450-cyp2c19 Compounds with AC50 equal or less than 10 uM are considered active; format: functional
Cytochrome P450 2C19, sequence (P33261 whole entry): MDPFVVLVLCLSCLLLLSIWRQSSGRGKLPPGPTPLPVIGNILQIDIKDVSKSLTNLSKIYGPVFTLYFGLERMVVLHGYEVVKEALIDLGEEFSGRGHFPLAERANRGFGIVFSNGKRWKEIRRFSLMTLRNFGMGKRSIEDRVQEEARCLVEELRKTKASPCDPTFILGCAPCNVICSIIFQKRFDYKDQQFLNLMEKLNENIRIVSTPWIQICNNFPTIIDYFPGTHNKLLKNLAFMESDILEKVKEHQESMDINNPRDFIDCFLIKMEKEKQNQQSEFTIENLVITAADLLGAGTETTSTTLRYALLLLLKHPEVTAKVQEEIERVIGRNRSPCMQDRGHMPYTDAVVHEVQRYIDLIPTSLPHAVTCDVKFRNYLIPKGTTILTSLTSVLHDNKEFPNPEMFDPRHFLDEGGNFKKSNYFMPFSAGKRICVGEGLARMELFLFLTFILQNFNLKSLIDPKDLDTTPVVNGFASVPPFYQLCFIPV

Cytochrome P450 2C9, sequence (P11712 whole entry): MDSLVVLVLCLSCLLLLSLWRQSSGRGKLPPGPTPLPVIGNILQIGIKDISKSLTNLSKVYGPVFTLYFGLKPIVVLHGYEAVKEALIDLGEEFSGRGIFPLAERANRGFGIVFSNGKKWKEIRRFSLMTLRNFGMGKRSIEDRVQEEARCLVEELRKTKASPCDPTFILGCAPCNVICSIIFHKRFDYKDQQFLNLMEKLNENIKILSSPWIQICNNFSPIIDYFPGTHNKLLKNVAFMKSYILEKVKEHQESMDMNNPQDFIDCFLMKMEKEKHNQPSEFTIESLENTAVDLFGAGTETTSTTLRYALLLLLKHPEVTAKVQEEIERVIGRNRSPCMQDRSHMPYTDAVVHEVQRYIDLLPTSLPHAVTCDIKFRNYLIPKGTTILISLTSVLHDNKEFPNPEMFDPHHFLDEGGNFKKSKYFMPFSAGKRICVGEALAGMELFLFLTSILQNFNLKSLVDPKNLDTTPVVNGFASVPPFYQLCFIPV

O=C(O)c1ccccc1-c1ccccc1C(=O)Nc1ccc2c(c1)Cc1ccccc1-2
AC50 (Cytochrome P450 2C9): 3.16 µM (inconclusive)

CCc1cc2cc(C)c(C)cc2nc1SCC(=O)NNC(=O)c1ccco1
AC50 (Cytochrome P450 1A2): 0.794 µM (inconclusive)

COc1ccccc1C(=O)Nn1c(C2CCC2)nc2ccccc2c1=O
EC50 [1]: 2.13 µM (active) | EC50 [2]: > 30 µM (not active)

Cc1cnc(CNc2ccnc(-c3ccoc3)n2)cn1
AC50 (Cytochrome P450 3A4): 25.1 µM (inconclusive)

O=C(/C=C\NCC(=O)c1ccccc1)c1ccccc1
AC50 (Cytochrome P450 2C9): 1.78 µM (inconclusive)

COc1ccc(C2NC(=O)c3sc4nc(C)c(C(C)=O)c(-c5ccc(Cl)cc5)c4c3N2)cc1 (configuration not stated)
AC50 (Cytochrome P450 2C19; read-out: AC50): 2 µM (inconclusive)

CCc1c(C)nc2c(-c3ccccc3)c(C)nn2c1Nc1ccc(NC(C)=O)cc1
EC50 [1]: 1.29 µM (active) | EC50 [2]: > 60 µM (not active)

O=C1OC(OC2CCCCC2)(c2ccccc2)c2ccccc21 (configuration not stated)
AC50 (Cytochrome P450 3A4): 15.8 µM (inconclusive) | AC50 (Cytochrome P450 2C9): 15.8 µM (inconclusive)

CCC(=O)Nc1cccc(NC(=O)CSc2nnnn2Cc2ccccc2)c1
AC50 (Cytochrome P450 3A4): 3.55 µM (inconclusive) | AC50 (Cytochrome P450 2C9): 5.01 µM (inconclusive)

FC(F)(F)c1ccccc1-c1ccc2ncnc(NCc3cccs3)c2c1
AC50 (Cytochrome P450 2C9): 1 µM (inconclusive)

CCOC(=O)Cn1cc(C(=O)c2ccccc2F)c2ccccc21
AC50 (Cytochrome P450 3A4): 35.5 µM (inconclusive)

Clc1ccccc1OCCCCn1ccnc1
EC50 [1]: 2.05 µM (active) | EC50 [2]: > 60 µM (not active)

Nc1ccccc1/N=N\c1c(S(=O)(=O)O)cc2cc(S(=O)(=O)O)cc(O)c2c1O
AC50 (Cytochrome P450 1A2): 6.31 µM (inconclusive)

CCOc1ccc(C(F)(F)F)cc1NC(=O)c1ccc(OC)c([N+](=O)[O-])c1
AC50 (Cytochrome P450 2C19; read-out: AC50): 0.282 µM (inconclusive) | AC50 (Cytochrome P450 3A4): 22.4 µM (inconclusive)

O=C(Nc1ccccc1)N1CC2(CCN(C(=O)c3ccncc3)CC2)C1
AC50 (Cytochrome P450 1A2): 10 µM (inconclusive) | AC50 (Cytochrome P450 3A4): 25.1 µM (inconclusive)

COCCNC(=O)c1onc(CSc2ccccc2F)c1C(=O)O
AC50 (Cytochrome P450 2C19; read-out: AC50): 0.141 µM (inconclusive) | AC50 (Cytochrome P450 3A4): 35.5 µM (inconclusive)

COc1ccccc1NC(=O)Cn1nnc(-c2ccccc2NC(=O)c2cc3ccccc3oc2=O)n1
AC50 (Cytochrome P450 1A2): 15.8 µM (inconclusive) | AC50 (Cytochrome P450 2C9): 0.794 µM (inconclusive)

O=C(O)c1ccccc1N[C@H](c1ccccc1)c1ccc2cccnc2c1O
AC50 (Cytochrome P450 1A2): 1.58 µM (inconclusive) | AC50 (Cytochrome P450 2C9): 5.01 µM (inconclusive)

CN1CCN(C(=O)COc2ccc(S(=O)(=O)N(C)Cc3ccccc3)cc2)CC1
EC50 [1]: 0.189 µM (active) | EC50 [2]: > 60 µM (not active)

C[C@@H](C(=O)NCc1cccc2ccccc12)[C@H]1C[C@]1(C)[C@H](NC(=O)OCc1ccccc1)c1ccccc1
AC50 (Cytochrome P450 1A2): 25.1 µM (inconclusive)

Oc1ccc2c3c1O[C@H]1c4c(c5ccccc5n4Cc4ccccc4)C[C@]4(O)[C@H](C2)N(CC2CC2)CC[C@@]314
AC50 (Cytochrome P450 1A2): 31.6 µM (inconclusive)

N=C(N)SCc1ccc(Cl)cc1Cl.O=[N+]([O-])c1c(O)c(Cl)cc(Cl)c1Cl
AC50 (Cytochrome P450 2C9): 7.94 µM (inconclusive)

O=c1cnc2cnc(Nc3ccccc3)nc2n1CCc1ccccc1
AC50 (Cytochrome P450 2C9): 0.251 µM (inconclusive)

O=c1c(-c2ccc(Cl)cc2)nc2cncnc2n1Cc1ccccc1Cl
AC50 (Cytochrome P450 1A2): 1.26 µM (inconclusive) | AC50 (Cytochrome P450 3A4): 12.6 µM (inconclusive)

O=C(O)COc1ccc(-c2nccc(-c3cccs3)n2)cc1
AC50 (Cytochrome P450 2C19; read-out: AC50): 31.6 µM (inconclusive) | AC50 (Cytochrome P450 1A2): 15.8 µM (inconclusive)

CCOc1ncnc2c1oc1nc(CC(C)C)c3c(c12)CC(C)(C)OC3
AC50 (Cytochrome P450 2C19; read-out: AC50): 39.8 µM (inconclusive) | AC50 (Cytochrome P450 1A2): 22.4 µM (inconclusive)

O=C(Nc1cccc(-c2cn3cccnc3n2)c1)c1ccc(Br)o1
EC50 [1]: 0.554 µM (active) | EC50 [2]: > 60 µM (not active)

COc1cccc2cc3c(=O)oc4ccccc4c3nc12
AC50 (Cytochrome P450 2C9): 2.82 µM (inconclusive)

Cn1cc(-c2nc3cnc(Oc4ccccc4)nc3n(CCC#N)c2=O)c2ccccc21
AC50 (Cytochrome P450 1A2): 3.16 µM (inconclusive) | AC50 (Cytochrome P450 3A4): 7.94 µM (inconclusive)

NC(=O)Cn1nc([N+](=O)[O-])nc1Oc1ccc(Br)cc1
EC50 [1]: 0.174 µM (active) | EC50 [2]: > 60 µM (not active)

Cc1c(Br)c([N+](=O)[O-])nn1C(C)C(=O)Nc1nccs1 (configuration not stated)
AC50 (Cytochrome P450 1A2): 22.4 µM (inconclusive)

COc1cc(/C=C(\C#N)c2nc3ccccc3[nH]2)ccc1Oc1ccc([N+](=O)[O-])cn1
EC50 [1]: 1.12 µM (active) | EC50 [2]: > 30 µM (not active)

CCCN(C/C=C\I)[C@@H]1CCc2ccc(O)cc2C1
AC50 (Cytochrome P450 1A2): 25.1 µM (inconclusive) | AC50 (Cytochrome P450 2C9): 25.1 µM (inconclusive)

COc1cc2nncc(SCc3ccc(Cl)c(Cl)c3)c2cc1OC
AC50 (Cytochrome P450 1A2): 0.794 µM (inconclusive) | AC50 (Cytochrome P450 3A4): 2 µM (inconclusive)

Cc1ccc(Nc2nc(-c3sc(NC(=O)c4cccc(Cl)c4)nc3C)cs2)cc1
AC50 (Cytochrome P450 1A2): 14.1 µM (inconclusive) | AC50 (Cytochrome P450 3A4): 11.2 µM (inconclusive)

O=C(Nc1cc(C(F)(F)F)ccc1-n1cncn1)c1ccc(-c2ccccc2)cc1
EC50 [1]: 0.489 µM (active) | EC50 [2]: > 60 µM (not active)

O=[N+]([O-])c1ccc(S(=O)(=O)N2CCN(c3ccc(N4CCOCC4)nn3)CC2)cc1
EC50 [1]: 1.12 µM (active) | EC50 [2]: > 60 µM (not active)

C=CC[C@@H]1C=C[C@@H](O/N=C\c2ccc(C(=O)N3[C@H](c4ccc(C)cc4)[C@@H](C)CC[C@H]3C(=O)OC)cc2)[C@@H](CO)O1
AC50 (Cytochrome P450 2C19; read-out: AC50): 3.16 µM (inconclusive)

COC(=O)[C@@]1(Cc2ccc(F)cc2)[C@H]2c3cc(C(=O)N4CCCC4)n(Cc4ccccc4)c3C[C@H]2CN1C(=O)c1ccccc1
AC50 (Cytochrome P450 2C19; read-out: AC50): 31.6 µM (inconclusive) | AC50 (Cytochrome P450 1A2): 20 µM (inconclusive)

CC(C)C12CN3CC(C(C)C)(CN(C1)C3c1cccnc1)C2=O (configuration not stated)
AC50 (Cytochrome P450 1A2): 25.1 µM (inconclusive) | AC50 (Cytochrome P450 2C9): 3.16 µM (inconclusive)

O=C(CSc1nc2ccccc2o1)NC(=O)NCc1ccccc1
AC50 (Cytochrome P450 3A4): 22.4 µM (inconclusive)

Cc1cccc(C)c1NC(=O)C[S+]([O-])CC(=O)Nc1ccc(F)cc1F (configuration not stated)
AC50 (Cytochrome P450 3A4): 14.1 µM (inconclusive) | AC50 (Cytochrome P450 2C9): 39.8 µM (inconclusive)

O=S(=O)(O)c1cc(/N=[N+](\[O-])c2cc(S(=O)(=O)O)c3ccccc3c2)cc2ccccc12
AC50 (Cytochrome P450 2C19; read-out: AC50): 3.98 µM (inconclusive) | AC50 (Cytochrome P450 1A2): 1.26 µM (inconclusive) | AC50 (Cytochrome P450 2C9): 7.94 µM (inconclusive)

COc1ccccc1/C=C/C(=O)NCC(=O)N/N=C/c1ccccc1[N+](=O)[O-]
EC50 [1]: 1.59 µM (active) | EC50 [2]: > 60 µM (not active)

CCOc1cc(/C=N/NC(=O)CNc2cccc(C)c2)ccc1OC(=O)c1ccccc1
AC50 (Cytochrome P450 1A2): 14.1 µM (inconclusive)

N#Cc1cc([N+](=O)[O-])ccc1Oc1cccc(/C=N/NC(=O)c2cccc(Cl)c2)c1
EC50 [1]: 0.531 µM (active) | EC50 [2]: > 60 µM (inconclusive)

CC1(C)Cc2ccccc2C(N/N=C/c2cccc(F)c2)=N1
AC50 (Cytochrome P450 2C19; read-out: AC50): 25.1 µM (inconclusive)

Cc1cccc(C)c1NC(=O)COc1cccc(/C=N/NC(=O)C(=O)NCc2ccccc2)c1
AC50 (Cytochrome P450 2C19): inconclusive

CC[n+]1ccccc1C=Cc1ccc(N(C)C)cc1
EC50 [1]: 0.572 µM (active) | EC50 [2]: > 60 µM (not active)

O=C(O)C1=CCCN(CCOC(c2ccc(C(F)(F)F)cc2)c2ccc(C(F)(F)F)cc2)C1
AC50 (Cytochrome P450 3A4): 39.8 µM (inconclusive)

CCN1CCC[C@@H](OC(=O)C(c2ccccc2)c2ccccc2)C1 [PIPERIDOLATE]
AC50 (Cytochrome P450 1A2): 0.00126 µM (inconclusive)
